ChEMBL document CHEMBL1124865, “Synthesis and biological evaluation of a series of parenteral 3'-quaternary ammonium cephalosporins” (J Med Chem, 1990)
Converted amounts (≈) assume the structure as drawn.

Key:
Format in all cases: functional
[1] = system: Klebsiella pneumoniae; assay: microbe, parasite or virus in culture
Description: Antibacterial activity against Klebsiella pneumoniae 1082E

[2] = system: Escherichia coli; assay: In vivo efficacy against Escherichia coli infected mice treated at 1 hr and 5 hr post infection
[3] = system: Streptococcus pyogenes; assay: Antibacterial activity against Streptococcus pyogenes
[4] = system: Serratia marcescens; assay: Antibacterial activity against Serratia marcescens SE3
[5] = system: Staphylococcus aureus; assay: In vivo efficacy against Staphylococcus aureus infections in mice
[6] = system: Streptococcus pneumoniae; assay: Antibacterial activity against Streptococcus pneumoniae
[7] = system: Enterobacter cloacae; assay: Antibacterial activity against Enterobacter cloacae EB5
[8] = system: Escherichia coli; assay: Antibacterial activity against Escherichia coli EC14
[9] = system: Staphylococcus aureus; assay: Antibacterial activity against penicillin G resistance Staphylococcus aureus
[10] = system: Escherichia coli; assay: In vivo efficacy against Escherichia coli infections in mice
[11] = system: Staphylococcus aureus; assay: In vivo efficacy against Staphylococcus aureus infected mice treated at 1 hr and 5 hr post infection
[12] = system: Staphylococcus aureus; assay: Antibacterial activity against penicillin G susceptible Staphylococcus aureus
[13] = system: Klebsiella pneumoniae; assay: Antibacterial activity against Klebsiella pneumoniae X26
[14] = system: Pseudomonas aeruginosa; assay: In vivo efficacy against Pseudomonas aeruginosa infected mice treated at 1 hr and 5 hr post infection
[15] = system: Pseudomonas aeruginosa; assay: Antibacterial activity against Pseudomonas aeruginosa X528
[16] = system: Pseudomonas aeruginosa; assay: In vivo efficacy against Pseudomonas aeruginosa infections in mice
[17] = system: Enterobacter cloacae; assay: Antibacterial activity against Enterobacter cloacae 265A
[18] = system: Enterococcus faecium; assay: Antibacterial activity against Enterococcus faecium
[19] = system: Pseudomonas aeruginosa; assay: Antibacterial activity against Pseudomonas aeruginosa PS18
[20] = system: Escherichia coli; assay: Antibacterial activity against Escherichia coli TEM

Structure (SMILES) | MIC [1] [mg/L] | ED50 [2] [mg/kg] | MIC [3] [mg/L] | MIC [4] [mg/L] | MIC [5] [mg/L] | MIC [6] [mg/L] | MIC [7] [mg/L] | MIC [8] [mg/L] | MIC [9] [mg/L] | MIC [10] [mg/L] | ED50 [11] [mg/kg] | MIC [12] [mg/L] | MIC [13] [mg/L] | ED50 [14] [mg/kg] | MIC [15] [mg/L] | MIC [16] [mg/L] | MIC [17] [mg/L] | MIC [18] [mg/L] | MIC [19] [mg/L] | MIC [20] [mg/L]
CO/N=C(\C(=O)N[C@@H]1C(=O)N2C(C(=O)[O-])=C(C[n+]3cccc(CC(=O)O)c3)CS[C@H]12)c1csc(N)n1 (stereo in doubt; 17) | 32 (≈ 60.1 µM) | <0.16 | 0.03 (≈ 0.0563 µM) | 0.06 (≈ 0.113 µM) | 8 (≈ 15 µM) | 0.03 (≈ 0.0563 µM) | 0.25 (≈ 0.469 µM) | <0.008 | 16 (≈ 30 µM) | 0.03 (≈ 0.0563 µM) | 6.2 | 8 (≈ 15 µM) |  |  |  |  |  |  |  | 
CO/N=C(\C(=O)N[C@@H]1C(=O)N2C(C(=O)[O-])=C(C[n+]3cccc(CC(=O)O)c3)CS[C@H]12)c1csc(N)n1 (stereo in doubt; 24) | 8 (≈ 15 µM) | 0.09 |  | 0.5 (≈ 0.939 µM) |  |  |  | 0.125 (≈ 0.235 µM) | 8 (≈ 15 µM) |  |  |  | 0.06 (≈ 0.113 µM) | 17.4 | 4 (≈ 7.51 µM) | 16 (≈ 30 µM) |  |  |  | 
CO/N=C(\C(=O)N[C@@H]1C(=O)N2C(C(=O)[O-])=C(C[n+]3ccc(CC(=O)NO)cc3)CS[C@H]12)c1csc(N)n1 (stereo in doubt; 21) |  | 0.07 | 0.015 (≈ 0.0274 µM) | 0.06 (≈ 0.11 µM) | 2 (≈ 3.65 µM) |  | 0.125 (≈ 0.228 µM) |  |  |  | 3.3 |  |  |  | 1 (≈ 1.83 µM) |  | 16 (≈ 29.2 µM) |  |  | 
CO/N=C(\C(=O)N[C@@H]1C(=O)N2C(C(=O)[O-])=C(C[n+]3ccc(CC(=O)NO)cc3)CS[C@H]12)c1csc(N)n1 (stereo in doubt; 20) | 8 (≈ 14.6 µM) | <0.03 | 0.06 (≈ 0.11 µM) | 0.25 (≈ 0.457 µM) |  | 0.06 (≈ 0.11 µM) |  |  | 16 (≈ 29.2 µM) | 0.06 (≈ 0.11 µM) | 1.4 | 8 (≈ 14.6 µM) |  | 20 |  | 8 (≈ 14.6 µM) | 64 (≈ 117 µM) | >128 | 16 (≈ 29.2 µM) | 
CO/N=C(\C(=O)N[C@@H]1C(=O)N2C(C(=O)[O-])=C(C[n+]3ccc(CC(=O)NO)cc3)CS[C@H]12)c1csc(N)n1 (stereo in doubt; 8) | 16 (≈ 29.2 µM) | 0.82 |  | 0.5 (≈ 0.913 µM) |  |  | 0.5 (≈ 0.913 µM) |  |  |  | 2.5 | 4 (≈ 7.3 µM) |  | >40 | 32 (≈ 58.4 µM) |  |  |  |  | 0.06 (≈ 0.11 µM)
CO/N=C(\C(=O)N[C@@H]1C(=O)N2C(C(=O)[O-])=C(C[n+]3ccc(CC(=O)NO)cc3)CS[C@H]12)c1csc(N)n1 (stereo in doubt; 7) |  | 0.04 |  |  |  | 0.015 (≈ 0.0274 µM) |  |  |  |  | 1.5 |  |  | 19.6 |  |  |  |  |  | 
CO/N=C(\C(=O)N[C@@H]1C(=O)N2C(C(=O)[O-])=C(C[n+]3ccc(CC(=O)NO)cc3)CS[C@H]12)c1csc(N)n1 (stereo in doubt; 12) | 32 (≈ 58.4 µM) | <0.16 |  |  | 4 (≈ 7.3 µM) |  | 4 (≈ 7.3 µM) | 0.06 (≈ 0.11 µM) | 8 (≈ 14.6 µM) |  | 5.3 |  | 0.06 (≈ 0.11 µM) | 8.6 | 4 (≈ 7.3 µM) |  | >128 |  | 8 (≈ 14.6 µM) | 0.125 (≈ 0.228 µM)
CO/N=C(\C(=O)N[C@@H]1C(=O)N2C(C(=O)[O-])=C(C[n+]3ccc(CC(=O)NO)cc3)CS[C@H]12)c1csc(N)n1 (stereo in doubt; 13) |  | 0.05 |  |  | 8 (≈ 14.6 µM) |  |  |  |  |  | >10 |  |  | 31 | 16 (≈ 29.2 µM) | 64 (≈ 117 µM) | 128 (≈ 234 µM) |  |  | 
